The results in this text go back to PubChem BioAssay (NCI).

Several values for one entry are separate records, joined by “and”; a condition that tells them apart may be missing. Equal entries are not always repeated.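 Values below derive from 48-hour exposures of cells grown in 96-well plates, with endpoints linearly interpolated between the two concentrations bracketing the appropriate inhibition level. Abbreviation: GI50, concentration required for 50% inhibition of growth. TGI: concentration producing complete growth inhibition.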

Some test systems named below: OVCAR-3 ovarian; SN12C renal; PC-3 prostate; MDA-MB-435; OVCAR-4 ovarian; MOLT-4 leukemia; OVCAR-8 ovarian; NCI-H522 lung; TK-10 renal; SK-OV-3 ovarian.
Common to all, as to assay: inhibition of tumour cell growth, NCI panel, 48 h

For `CCOC(=O)c1c(C)n(CC(C)C)c2c1cc1oc(=O)c(=O)n3cnc2c13`, the GI50 in the test with OVCAR-3 ovarian was 11.2 µM; in the test on SN12C renal, 10.7 µM; with PC-3 prostate it was 24.6 µM; in the test with MDA-MB-435 it was 9.07 µM; in the test on OVCAR-4 ovarian, 17.4 µM; in the test with MOLT-4 leukemia, 15.8 µM. Moreover, the GI50 is 12.5 µM in the test with OVCAR-8 ovarian, over 50 µM with NCI-H522 lung, 13.3 µM with TK-10 renal and 20.4 µM in the test with SK-OV-3 ovarian. For the same compound, the TGI with OVCAR-3 ovarian is 25.9 µM; in the test with SN12C renal, 22.9 µM; in the test on PC-3 prostate, over 50 µM; with MDA-MB-435 it was 16.8 µM; in the test on OVCAR-4 ovarian, over 50 µM; in the test with MOLT-4 leukemia, over 50 µM. The TGI was 36.7 µM in the test with OVCAR-8 ovarian, over 50 µM in the test with NCI-H522 lung, 47.6 µM in the test on TK-10 renal and over 50 µM in the test on SK-OV-3 ovarian.
As for `CCCCCC(=O)OCC(=O)O[C@@H]1C[C@]2(C(C)C)O[C@@]1(C)[C@@H]1CC[C@@H](C)[C@H]1[C@@H]2OC(=O)/C=C/c1ccccc1`, the GI50 is over 46.6 µM with OVCAR-3 ovarian; 2.9 µM in the test with SN12C renal; 8.58 µM in the test on PC-3 prostate; over 58.2 µM in the test with MDA-MB-435; 26.5 µM in the test with OVCAR-4 ovarian; over 45.5 µM with MOLT-4 leukemia. The GI50 in the test with OVCAR-8 ovarian is 0.0907 µM; in the test on NCI-H522 lung, 38.2 µM; in the test with TK-10 renal it was over 51.1 µM; in the test on SK-OV-3 ovarian, over 85.2 µM. For the same compound, the TGI with OVCAR-3 ovarian is over 67.3 µM; in the test with SN12C renal, over 78.7 µM; in the test on PC-3 prostate, over 100 µM; in the test on MDA-MB-435, over 86.4 µM; in the test with OVCAR-4 ovarian, over 71.5 µM; in the test with MOLT-4 leukemia, over 100 µM. For the same compound, the TGI in the test on OVCAR-8 ovarian was over 79.2 µM; in the test on NCI-H522 lung, over 76.5 µM; in the test on TK-10 renal it was over 93.5 µM; in the test on SK-OV-3 ovarian, over 100 µM.
For `O=C1NC(=O)C2(CCC(O)C2)c2cc[n+]([O-])cc21` (stereo not given), the TGI with OVCAR-3 ovarian, in the test on SN12C renal, with PC-3 prostate, in the test with MDA-MB-435, with OVCAR-4 ovarian and with MOLT-4 leukemia was over 100 µM throughout. Besides, the TGI in the test on OVCAR-8 ovarian, in the test with NCI-H522 lung, in the test with TK-10 renal and in the test on SK-OV-3 ovarian was over 100 µM throughout.
`CC1CCC2C(C)C3C(CC4C5CC=C6CC(OC7OC(CO)C(O)C(OC8OC(CO)C(O)C(O)C8O)C7OC7OC(C)C(O)C(O)C7O)CCC6(C)C5CCC43C)N2C1` (stereo not given): the GI50 in the test on OVCAR-3 ovarian, in the test on SN12C renal, in the test with PC-3 prostate, with MDA-MB-435, with OVCAR-4 ovarian and in the test on MOLT-4 leukemia was over 2.5 µg/mL in each case. Besides, the GI50 in the test with OVCAR-8 ovarian, in the test with NCI-H522 lung, in the test with TK-10 renal and in the test on SK-OV-3 ovarian was over 2.5 µg/mL throughout. Further, the TGI was 31.7 µM and > 2.5 µg/mL with OVCAR-3 ovarian; 24.3 µM and > 2.5 µg/mL in the test with SN12C renal; 28.5 µM and > 2.5 µg/mL in the test on PC-3 prostate; 21 µM and > 2.5 µg/mL in the test with MDA-MB-435; 20.3 µM and > 2.5 µg/mL in the test on OVCAR-4 ovarian; 60.9 µM and > 2.5 µg/mL in the test with MOLT-4 leukemia. The TGI was 29.8 µM and > 2.5 µg/mL in the test with OVCAR-8 ovarian; 35.2 µM and > 2.5 µg/mL in the test with NCI-H522 lung; 30.6 µM and > 2.5 µg/mL with TK-10 renal; 29.6 µM and > 2.5 µg/mL with SK-OV-3 ovarian.
With `O=[N+]([O-])c1cc(Cl)cc2c1nc(NCCO)c1ccccc12`, the TGI is over 100 µM in the test with OVCAR-3 ovarian; over 100 µM in the test with SN12C renal; over 70.4 µM in the test with PC-3 prostate; over 100 µM in the test on MDA-MB-435; over 100 µM with OVCAR-4 ovarian; 34 µM with MOLT-4 leukemia. Besides, the TGI in the test with OVCAR-8 ovarian is over 100 µM; with NCI-H522 lung, 62.9 µM; in the test with TK-10 renal, over 60.5 µM; in the test on SK-OV-3 ovarian, over 100 µM.
As to `CS(=O)(=O)OCCN(CCOS(C)(=O)=O)c1ccc(C=Nc2ccc3oc(=O)ccc3c2)cc1`, the TGI was 24.1 µM with OVCAR-3 ovarian; over 70.5 µM with SN12C renal; 80.7 µM with PC-3 prostate; 26.1 µM with MDA-MB-435; 41 µM in the test on OVCAR-4 ovarian; 15.4 µM in the test on MOLT-4 leukemia. Also, the TGI with OVCAR-8 ovarian was 49.9 µM; with NCI-H522 lung, 0.828 µM; in the test with TK-10 renal it was 9.22 µM; in the test with SK-OV-3 ovarian, 9.92 µM.
Regarding `CC(=O)NCCCCCCNC(C)=O`, the TGI with OVCAR-3 ovarian is 9840 µM; in the test on SN12C renal, over 10000 µM; in the test with PC-3 prostate, over 10000 µM; in the test on MDA-MB-435, over 10000 µM; in the test with OVCAR-4 ovarian, over 9590 µM; in the test on MOLT-4 leukemia, over 10000 µM. The TGI in the test with OVCAR-8 ovarian was over 10000 µM; with NCI-H522 lung it was 9120 µM; in the test with TK-10 renal it was over 10000 µM; with SK-OV-3 ovarian, over 10000 µM.
`CCOC(=O)CNC(=O)CCCn1c(=O)c2c3ccccc3n(C)c2n2nnc(-c3ccccc3)c12`: the GI50 with OVCAR-3 ovarian is 12.5 µM; with SN12C renal, over 50 µM; in the test with PC-3 prostate, 8.59 µM; in the test on MDA-MB-435, over 50 µM; in the test with OVCAR-4 ovarian, over 50 µM; in the test on MOLT-4 leukemia it was over 50 µM. Besides, the GI50 in the test with OVCAR-8 ovarian was 25.2 µM; in the test with NCI-H522 lung it was 6.49 µM; in the test with TK-10 renal, 8.71 µM; in the test with SK-OV-3 ovarian it was 6.7 µM. The TGI in the test on OVCAR-3 ovarian was 48.8 µM; with SN12C renal it was over 50 µM; in the test with PC-3 prostate, over 50 µM; with MDA-MB-435, over 50 µM; in the test with OVCAR-4 ovarian it was over 50 µM; in the test with MOLT-4 leukemia it was over 50 µM. Also, the TGI in the test with OVCAR-8 ovarian was over 50 µM; with NCI-H522 lung, 19.9 µM; in the test on TK-10 renal, 20.9 µM; with SK-OV-3 ovarian, 44 µM.
As to `CCN(Cc1nc2cc(C(F)(F)F)ccc2nc1-c1ccccc1)c1ccc(OC)c(OC)c1`, the GI50 in the test on OVCAR-3 ovarian was 13.1 µM; in the test on SN12C renal, 14.9 µM; in the test on PC-3 prostate, 7.33 µM; in the test with MDA-MB-435, 16.4 µM; with OVCAR-4 ovarian, 41.2 µM; with MOLT-4 leukemia, 11.8 µM. Also, the GI50 was 1.51 µM in the test with OVCAR-8 ovarian, 14.5 µM with NCI-H522 lung, 28 µM in the test on TK-10 renal and 39.8 µM with SK-OV-3 ovarian. The TGI in the test with OVCAR-3 ovarian was 26.5 µM; in the test on SN12C renal it was 29.6 µM; in the test with PC-3 prostate, 22 µM; with MDA-MB-435, 32.4 µM; in the test on OVCAR-4 ovarian it was over 100 µM; in the test on MOLT-4 leukemia, 52.1 µM. The TGI in the test on OVCAR-8 ovarian was 18.7 µM; in the test on NCI-H522 lung, 34 µM; with TK-10 renal, 82.3 µM; with SK-OV-3 ovarian, over 100 µM.
On to `CCCC[P+](c1ccccc1)(c1ccccc1)c1ccccc1`, for which the GI50 in the test on OVCAR-3 ovarian was 1.13 µM; in the test on SN12C renal, 4.35 µM; with PC-3 prostate it was 1.16 µM; in the test with MDA-MB-435, 1.63 µM; in the test on OVCAR-4 ovarian it was 2.43 µM; in the test on MOLT-4 leukemia, 5.72 µM. The GI50 is 2.68 µM with OVCAR-8 ovarian, 1.22 µM in the test with NCI-H522 lung, 8.29 µM in the test with TK-10 renal and 13.4 µM with SK-OV-3 ovarian. Also, the TGI with OVCAR-3 ovarian was 23.3 µM; in the test on SN12C renal, over 100 µM; with PC-3 prostate, 68.3 µM; in the test with MDA-MB-435 it was 82.6 µM; in the test with OVCAR-4 ovarian, over 100 µM; with MOLT-4 leukemia, over 100 µM. The TGI with OVCAR-8 ovarian is over 100 µM; in the test with NCI-H522 lung, 6.85 µM; in the test with TK-10 renal, over 100 µM; in the test on SK-OV-3 ovarian, over 100 µM.
Consider `COC(=O)c1c2c(c(C)[n+]([O-])c1C)C(=O)C(NCc1cccc(OC)c1)=CC2=O`, for which the GI50 in the test on OVCAR-3 ovarian was 0.512 µM; in the test with SN12C renal, 1.97 µM; in the test with PC-3 prostate, 2.63 µM; with MDA-MB-435, 1.67 µM; in the test with OVCAR-4 ovarian, 1.27 µM; in the test on MOLT-4 leukemia, 2.39 µM. Further, the GI50 is 2.52 µM in the test on OVCAR-8 ovarian, 1.92 µM in the test with NCI-H522 lung, 4.55 µM in the test with TK-10 renal and 3.53 µM with SK-OV-3 ovarian. For the same compound, the TGI in the test with OVCAR-3 ovarian amounted to 3.21 µM; in the test with SN12C renal, 4.94 µM; with PC-3 prostate it was 14.8 µM; in the test with MDA-MB-435, 3.05 µM; in the test on OVCAR-4 ovarian it was 2.55 µM; in the test with MOLT-4 leukemia, 6.67 µM. Further, the TGI stood at 10.3 µM in the test on OVCAR-8 ovarian, 5.02 µM in the test with NCI-H522 lung, 22.7 µM in the test on TK-10 renal and 13.6 µM in the test with SK-OV-3 ovarian.
Regarding `O=C(c1ccco1)c1c(C(F)(F)F)nc2cc(C(F)(F)F)ccc2[n+]1[O-]`, the GI50 with OVCAR-3 ovarian was 37.8 µM; with SN12C renal, 43.7 µM; with PC-3 prostate, 44.9 µM; in the test with MDA-MB-435, over 100 µM; with OVCAR-4 ovarian it was over 100 µM; with MOLT-4 leukemia, over 100 µM. The GI50 was 31.8 µM in the test with OVCAR-8 ovarian, 65.8 µM in the test with NCI-H522 lung, 28.6 µM in the test with TK-10 renal and 20.3 µM with SK-OV-3 ovarian. For the same compound, the TGI in the test with OVCAR-3 ovarian, in the test on SN12C renal, with PC-3 prostate, with MDA-MB-435, in the test with OVCAR-4 ovarian and with MOLT-4 leukemia was over 100 µM each time. Besides, the TGI in the test on OVCAR-8 ovarian was over 100 µM; in the test with NCI-H522 lung, over 100 µM; in the test on TK-10 renal it was over 100 µM; with SK-OV-3 ovarian it was 64.6 µM.
On to `CCCCSCc1nc2nc(Cl)c(Cl)nc2[nH]1`, for which the TGI is 36.7 µM with OVCAR-3 ovarian; 53.2 µM with SN12C renal; over 100 µM in the test on PC-3 prostate; over 100 µM in the test with MDA-MB-435; over 100 µM in the test with OVCAR-4 ovarian; 45.5 µM with MOLT-4 leukemia. The TGI with OVCAR-8 ovarian was over 100 µM; with NCI-H522 lung it was 42.6 µM; in the test on TK-10 renal, 73.9 µM; in the test on SK-OV-3 ovarian, 57.2 µM.
